According to patent US20100285146A1, “PEPTIDES AND METHODS FOR THE TREATMENT OF SYSTEMIC LUPUS ERYTHEMATOSUS” (priority 2007, published 2010):
No end group written: not given here.

What was measured:
[1] = biological target: 5101 peptide (Res. 1-16 of 5100) (mouse); assay: direct binding ELISA, peptide-coated wells, read after two hours
[2] = biological target: 5102 peptide (Res. 6-17 of 5100) (mouse); assay: as above
[3] = biological target: 5200 peptide (R38′), mouse R38 analog; assay: as above
[4] = biological target: 5300 peptide, human R38 (human); assay: as above
[5] = biological target: R38 peptide (5100), mouse R38 (mouse); assay: as above
[6] = tested on: C72 murine anti-DNA antibody; assay: Anti-peptide direct binding ELISA with C72; conditions: for C72 Binding: direct binding ELISA, footnote: O.D. after one (1) hour
Experimental: (§1) Wells were coated with 10 μg/ml of the peptides, blocked with 1% BSA (bovine serum albumin) in PBS (pH 7.4), reacted with appropriately diluted plasma or monoclonal antibodies, incubated with anti-human or anti-mouse immunoglobulin enzyme conjugated to alkaline phosphatase and detected by addition of substrate (Sigma 100 Phosphatase Substrate Tablets) and color development using an Organon Teknika Microwell System spectrometer at wavelength of 405 nm.
(§2) The interaction of the C72 murine anti-DNA antibody with laminin peptides was analyzed by ELISA as described above. The C72 conditioned medium was diluted in PBS in various dilutions.
(§3) The peptides of the present invention were tested for their ability to bind directly with C72 murine anti-DNA antibodies and B3 human anti-DNA antibodies according to the method described hereinabove.

[7] = tested on: B3 human anti-DNA antibodies; assay: Anti-peptide direct binding ELISA with B3; conditions: for B3 Binding: direct binding ELISA, footnote: O.D. after two (2) hours
Experimental: as §1
(§4) The human monoclonal anti-DNA antibodies DIL 6 and B3 were derived from lupus patients by the hybridoma technique. […] In FIGS. 3 and 4, the peptides are referred to as denoted above or as follows; AS30 is R27, AS19 is R35, AS35 is R26, AS17 is R28 and AS6 is R18.
as §3

[8] = tested on: C72 murine anti-DNA antibody; assay: Competitive inhibition of the binding of C72 to 5200; conditions: after incubation of C72 with the inhibiting agent
Experimental: The binding of C72 to 5200 was tested before and after incubation with 5200, R38, R18, Heparin, DNA and DNase. […] The percent inhibition is the percent reduction of the O.D. after incubation with the inhibiting agent.

C72 anti-DNA antibody = assay: Competitive inhibition of C72 binding to R38 (5100); parameters: species or system murine; conditions: concentration of competitive inhibitor giving 50% inhibition, ELISA
Description: A competitive inhibition study compared how each of the peptides competes with R38 (5100) for binding to the C72 anti-DNA antibody. Conducted according to the methods described hereinabove, the results of the study are disclosed in Table 4 below and are further elucidated by reference to FIG. 10.

[9] = tested on: urine antibodies of lupus patients; assay: Urine anti-peptide antibody ELISA in patients; assay type: binding, human; conditions: Example 5
Experimental: as §1
Activity of the disease was evaluated also by accepted clinical and serological parameters (Lockshin M. D. et al. Am. J. Med (1984) 77 893-898) and their correlation with anti-R38 levels was compared. 103 urine samples of 37 SLE patients were tested for anti-R38 activity by ELISA as described above. 23 of the samples were from patients without renal disease and 80 samples from patients with renal disease. A further 12 samples from patients with renal disease not related to SLE were also included.

MRL/1pr/1pr mice = assay: Clinical course of murine SLE (survival, renal histology); assay type: in vivo; conditions: for renal histology by light microscopy: two mice sacrificed after 5 months, controls severe diffuse proliferative glomerulonephritis
Experimental: To test whether R38 peptides can affect the course of SLE we have tested their effect on MRL/1pr/1pr mice disease. 60 μg of 5200 (R38′ alone or in peptide combinations, 30 μg of each) in 0.1 ml PBS, was injected i.p. to 6 week old female MRL/1pr/1pr mice once a week for 16 weeks and the mice were evaluated for survival (FIG. 8), and for renal histology.
50 μg of 5100 (R38) or 5300 (human R38) in 0.1 ml PBS, was injected i.p. to 6 week old MRL/1pr/1pr mice three times a week and the mice were evaluated for survival (FIG. 9), and for renal histology. Control mice received 0.1 ml phosphate buffer solution. Each test and control group contained 12-15 mice.
The survival of MRL/1pr/1pr mice treated with 5100, 5200 or 5300 was compared to that of PBS treated mice. […] In FIGS. 8 and 9 the time in days shown on the x axis relates to the age of the mice. Two mice in each group were sacrificed after 5 months and their kidneys evaluated by light microscopy.

C72 antibody = assay: Affinity absorption on R38 column, C72 sample; assay type: binding, mouse
Experimental: (§5) The R38 peptide was dissolved in the coupling buffer (0.2M NaHCO3, 0.5M NaCl, pH 8.3) in a concentration of 1 mg/ml in 5 ml coupling buffer. A 5 ml N-hydroxysuccinimide (NHS)-activated Sepharose™ High Performance Column (Pharmacia 17-0717-01) is used. The isopropanol in the column was washed out from the column with 30 ml of cold (4° C.) 1 mM HCl and 5 ml of the peptide solution was then injected onto the column with a syringe (2.5 ml/minute). The column was sealed and stood for 30 minutes at room temperature. The column was then washed with 30 ml Buffer A (0.5 M ethanolamine, 0.5 M NaCl, pH 8.3) and 30 ml Buffer B (0.5 M acetate, 0.5 M NaCl, pH 4) consecutively three times, and then with neutral pH buffer (0.05 M Na2HPO4 and 0.1% NaN3).
The column was washed with 15 ml PBS (phosphate buffered saline), followed by 15 ml elution buffer (0.1 M glycine HCl) and then 50 ml PBS. The C72 antibody or the patients' plasma samples were filtered through a 0.45 microm filter. The samples were applied onto the column by a fitted syringe at a rate of 2.5 ml/min. The column was then washed with 5 ml PBS and the flow-through was applied to the column again. […]
(§6) In the instant example, the mouse C72 and the SLE patients' plasma were applied to the R38 column. Their anti-R38 binding was evaluated by ELISA in the original samples and in the flow-through of the column.

[10] = tested on: anti-R38 antibodies in human plasma; assay: Affinity absorption on R38 column, human plasma samples; assay type: binding; conditions: for Binding to R38 (O.D.), Original sample: before column; for Binding to R38 (O.D.), After immunoabsorption: flow-through of R38 column
Experimental: as §5
The column was washed with 15 ml PBS (phosphate buffered saline), followed by 15 ml elution buffer (0.1 M glycine HCl) and then 50 ml PBS. The C72 antibody or the patients' plasma samples were filtered through a 0.45 microm filter. The samples were applied onto the column by a fitted syringe at a rate of 2.5 ml/min. The column was then washed with 5 ml PBS and the flow-through was applied to the column again. The binding of the samples (original and flow-through) to R38 was tested by the anti-R38 ELISA test.
as §6

[11] = tested on: urine antibodies of lupus patients; assay: Urine anti-peptide antibody ELISA in patients; assay type: binding, human
[12] = tested on: human monoclonal anti-DNA antibody DIL 6; assay: Anti-peptide direct binding ELISA with DIL6
Experimental: as §1, §4

[13] = tested on: anti-HEL Hy5 control murine antibody; assay: Direct binding ELISA with control murine antibody; conditions: data not shown
Experimental: as §1, §2

[14] = tested on: MRL/1pr/1pr urine antibodies; assay: Binding of murine urinary immunoglobulins, MRL/1pr/1pr urine; parameters: species or system mice
Experimental: as §1
(§7) Thus, pooled urine from at least 5 mice (either MRL/1pr/1pr or control mice, e.g. BALB/c) was added to wells coated with R38′ (5200), R18 or DNA as described above and bound 5200 assayed by ELISA.
(§8) Each group is comprised of pooled urine.

[15] = tested on: BALB/c urinary immunoglobulins; assay: Binding of murine urinary immunoglobulins, BALB/c control urine; conditions: pooled urine of BALB/c control mice
Experimental: as §1, §7, §8

Sequence of 5300 peptide, human R38 (human) (peptide, as listed by the source): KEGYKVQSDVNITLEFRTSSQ
Sequence of 5200 peptide (R38′), mouse R38 analog (peptide, as listed by the source): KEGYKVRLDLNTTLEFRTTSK

B3 human monoclonal anti-DNA antibody
O.D. in a direct binding ELISA [1]: 0.1 O.D.
O.D. in a direct binding ELISA [2]: 0.02 O.D.
O.D. in a direct binding ELISA [3]: 0.25 O.D.
O.D. in a direct binding ELISA [4]: 0.03 O.D.
O.D. in a direct binding ELISA [5]: 0.9 O.D.

KEGYKVRLDLNITLEFRTTSK [Peptide 5100]
C72 Binding [6]: 2.57 O.D.
B3 Binding [7]: 0.9 O.D.
inhibition of the binding of C72 to 5200 (FIG. 2) [8]: inhibition
50% Inhibition of C72 binding to mouse R38 (5100) (C72 anti-DNA antibody): 10 µg/mL
Urine anti-R38 O.D. (Mean + S.E.) ([9]; SLE absent, renal disease present, 12 samples): 0.07 ± 0.01 O.D.
Urine anti-R38 O.D. (Mean + S.E.) ([9]; SLE present, renal disease absent, 23 samples): 0.035 ± 0.003 O.D.
Urine anti-R38 O.D. (Mean + S.E.) ([9]; SLE present, renal disease present, 80 samples, p < 0.001): 0.229 ± 0.03 O.D.
survival versus PBS control mice (FIG. 9) (MRL/1pr/1pr mice; 50 μg i.p. three times a week, 6 week old mice): significantly higher
renal histology by light microscopy (MRL/1pr/1pr mice; 50 μg i.p. three times a week): mild proliferative changes with no crescents and no sclerosis
Binding to R38 (O.D.), Original sample (C72 antibody; sample C72, before column): 1.96 O.D.
Binding to R38 (O.D.), After immunoabsorption (C72 antibody; sample C72, flow-through of R38 column): 0.02 O.D.
Binding to R38 (O.D.), Original sample ([10]; Healthy donor's plasma): 0.26 O.D.
Binding to R38 (O.D.), After immunoabsorption ([10]; Healthy donor's plasma): 0.06 O.D.
Binding to R38 (O.D.), Original sample ([10]; SLE patient 1 plasma): 1.5 O.D.
Binding to R38 (O.D.), After immunoabsorption ([10]; SLE patient 1 plasma): 0.6 O.D.
Binding to R38 (O.D.), Original sample ([10]; SLE patient 2 plasma): 2.3 O.D.
Binding to R38 (O.D.), After immunoabsorption ([10]; SLE patient 2 plasma): 1.6 O.D.
Urine anti-5100 O.D. (Mean + S.E.) ([11]; Example 7, renal disease absent, 6 samples): 0.058 ± 0.006 O.D.
Urine anti-5100 O.D. (Mean + S.E.) ([11]; Example 7, renal disease present, 39 samples, p < 0.03): 0.376 ± 0.05 O.D.

CC(C)C[C@H](NC(=O)[C@H](CC(=O)O)NC(=O)[C@H](CC(C)C)NC(=O)[C@H](CCCNC(=N)N)NC(=O)[C@@H](NC(=O)[C@H](CCCCN)NC(=O)[C@H](Cc1ccc(O)cc1)NC(=O)CNC(=O)[C@H](CCC(=O)O)NC(=O)[C@@H](N)CCCCN)C(C)C)C(=O)N[C@@H](CC(N)=O)C(=O)N[C@H](C(=O)N[C@H](C(=O)N[C@@H](CC(C)C)C(=O)N[C@@H](CCC(=O)O)C(=O)N[C@@H](Cc1ccccc1)C(=O)N[C@@H](CCCNC(=N)N)C(=O)N[C@H](C(=O)N[C@H](C(=O)N[C@@H](CO)C(=O)N[C@@H](CCCCN)C(=O)O)[C@@H](C)O)[C@@H](C)O)[C@@H](C)O)[C@@H](C)O (stereo in doubt) [Peptide 5200]
binding of C72 murine anti-DNA antibody to laminin peptides (FIG. 1) ([6]; ELISA, C72 conditioned medium in various dilutions): binding
C72 Binding [6]: 1.8 O.D.
binding of B3 to laminin peptides (FIGS. 3 and 4) [7]: bind
B3 Binding [7]: 0.25 O.D.
binding of DIL 6 to laminin peptides (FIGS. 3 and 4) [12]: bind
binding of control antibody anti-HEL Hy5 [13]: did not bind
inhibition of the binding of C72 to 5200 (FIG. 2) [8]: inhibition
50% Inhibition of C72 binding to mouse R38 (5100) (C72 anti-DNA antibody): 10 µg/mL
interaction of MRL/1pr/1pr urine antibodies with peptide ([14]; direct binding ELISA): specific binding
Binding of murine urinary immunoglobulins to antigen ([14]; pooled urine of MRL/1pr/1pr mice): 0.26(*) O.D. at 405 nm
Binding of murine urinary immunoglobulins to antigen [15]: U.D.
survival versus PBS control mice (FIG. 8) (MRL/1pr/1pr mice; 60 μg i.p. once a week for 16 weeks, 6 week old female mice): significantly higher
renal histology by light microscopy (MRL/1pr/1pr mice; 60 μg i.p. once a week): mild proliferative changes with no crescents and no sclerosis
Urine anti-5200 O.D. (Mean + S.E.) ([11]; Example 6, renal disease absent, 46 samples): 0.05 ± 0.005 O.D.
Urine anti-5200 O.D. (Mean + S.E.) ([11]; Example 6, renal disease present, 132 samples, p < 0.001): 0.335 ± 0.035 O.D.
Urine anti-5200 O.D. (Mean + S.E.) ([11]; Example 8, renal disease absent, 6 samples): 0.052 ± 0.03 O.D.
Urine anti-5200 O.D. (Mean + S.E.) ([11]; Example 8, renal disease present, 46 samples): 0.431 ± 0.09 O.D.
